“Also recorded” adds a separate entry of the source.
Columns and labels:
[1] = system: Homozygous Holstein^Tg/Tg mice; experiment: Survival of Hol^Tg/Tg mice after enema treatment (model of Trisomy 21 [Collagen VI]-associated HSCR); assay type: in vivo, mouse
Method: Mice. Homozygous Holstein^Tg/Tg mice (Hol^Tg/Tg; a model for Trisomy 21 [Collagen VI]-associated HSCR) were treated with either 10 μl enemas of GDNF (1 μg/μl), or 10 μl of GDNF combined with 5 mM of amino-butyrate acid (Butyrate) or other growth factors at 1 μg/μl, or vehicle (1×PBS) as control. Enemas were administered once a day from postnatal day (P) 4 until P8, and mice were monitored daily until P60 or megacolon-associated death. Survival graphs and statistical analyses were generated with GraphPad Prism software. One-way ANOVA followed by post-hoc Tukey multiple comparison test was carried out, and significance level was set at P<0.05. Number of biological replicates (n) of each cohort is indicated where relevant in Figures.
It was tested whether molecules known to have neurotrophic effects could improve the effect of GDNF on survival in a mouse model for Trisomy 21 [Collagen VI]-associated HSCR) (39).
The molecules that were tested in the present study are: Bone morphogenetic protein 4 (BMP4), Nerve growth factor (NGF), Brain-derived neurotrophic factor (BDNF), Mesencephalic Astrocyte Derived Neurotrophic Factor (MANF), Cerebral Dopamine Neurotrophic Factor (CDNF), Epidermal Growth Factor (EGF), Neurturin (NRTN), Fibroblast growth factor 2 (FGF2), butyrate and Retinoic Acid (RA).

[2] = system: mouse model for Trisomy 21 [Collagen VI]-associated HSCR; details: previous study, same mouse model; Soret et al., Gastroenterology 2020, Supplementary FIG. 1G; cited from earlier work
[3] = literature reports, various models; cited from earlier work

Molecule: CCCC(=O)O [butyrate]
- effect on survival of combination with GDNF relative to GDNF alone ([1]; 10 μl enema of GDNF 1 μg/μl combined with 5 mM butyrate or other growth factor at 1 μg/μl, once a day P4 until P8, monitored until P60): significantly potentiate the effect of recombinant GDNF; also recorded: acts synergistically with GDNF to improve survival
- effect on mouse survival, substance alone ([1]; 10 μl enema once a day P4 until P8, butyrate 5 mM, compared with vehicle (1×PBS), monitored until P60): did not have any effect on survival; also recorded: no effect on mouse survival

Molecule: NCCc1c[nH]c2ccc(O)cc12 [serotonin]
- survival of mice, combination with GDNF relative to GDNF alone [2]: did not improve the survival of mice relative to GDNF alone

Molecule: O=C1O[C@H]([C@@H](O)CO)C(O)=C1O [vitamin C]
- survival of mice, combination with GDNF relative to GDNF alone [2]: did not improve the survival of mice relative to GDNF alone

Molecule: CDNF: Cerebral Dopamine Neurotrophic Factor
- Reported neurotrophic activity [3]: CDNF is essential for enteric neuronal development

Molecule: EGF: Epidermal Growth Factor
- Reported neurotrophic activity [3]: EGF is chemoattractant and chemokinetic molecule for

Molecule: FGF2: Fibroblast growth factor 2
- Reported neurotrophic activity [3]: FGF2 enhances the proliferation and differentiation of

Molecule: endothelin 3: molecule known to have neurotrophic effects, combined with GDNF in a previous study
- survival of mice, combination with GDNF relative to GDNF alone [2]: did not improve the survival of mice relative to GDNF alone

Reference: patent US20240366723A1, “COMBINATION THERAPY FOR THE TREATMENT OF ENTERIC NEUROPATHIES” (TRANSFERT PLUS, LIMITED PARTNERSHIP, priority 2021, published 2024)
